Columns and labels:
[1] = target: T1, human GPR120 (Homo sapiens, UniProt Q5NUL3); test: DMR (dynamic mass redistribution) assay in CHO-hGPR120 cells; type: cell-based; details: for DMR response after Gαs inhibition: CHO-hGPR120 cells treated with CTX; for DMR response after Gαi inhibition: CHO-hGPR120 cells treated with PTX; for DMR response after Gαq inhibition: CHO-hGPR120 cells treated with QIC; for EC50: mean ± SEM
T1 construct: expressed in transfected cells
T1 sequence (Q5NUL3 1-361): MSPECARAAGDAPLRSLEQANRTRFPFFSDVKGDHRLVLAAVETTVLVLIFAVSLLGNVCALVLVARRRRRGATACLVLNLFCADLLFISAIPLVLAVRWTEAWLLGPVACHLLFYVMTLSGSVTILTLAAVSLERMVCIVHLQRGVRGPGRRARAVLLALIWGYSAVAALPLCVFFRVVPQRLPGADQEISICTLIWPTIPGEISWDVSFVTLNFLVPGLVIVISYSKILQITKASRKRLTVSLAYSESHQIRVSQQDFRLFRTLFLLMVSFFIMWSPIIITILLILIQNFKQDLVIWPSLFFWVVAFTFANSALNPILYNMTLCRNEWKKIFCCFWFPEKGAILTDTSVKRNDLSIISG

[2] = target: T2, mouse GPR120 (Mus musculus, UniProt Q7TMA4); test: DMR assay in CHO-mGPR120 cells; type: cell-based
T2 construct: expressed in transfected cells
T2 sequence (Q7TMA4 1-361): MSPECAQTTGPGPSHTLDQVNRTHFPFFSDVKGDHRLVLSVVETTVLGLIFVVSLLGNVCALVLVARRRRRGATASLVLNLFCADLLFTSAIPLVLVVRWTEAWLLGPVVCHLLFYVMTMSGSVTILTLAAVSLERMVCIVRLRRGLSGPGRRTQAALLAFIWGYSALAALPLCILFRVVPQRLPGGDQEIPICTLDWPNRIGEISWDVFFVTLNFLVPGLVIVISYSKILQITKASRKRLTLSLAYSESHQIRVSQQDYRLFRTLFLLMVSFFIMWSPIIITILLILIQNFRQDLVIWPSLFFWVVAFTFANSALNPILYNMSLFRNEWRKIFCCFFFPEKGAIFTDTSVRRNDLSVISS
Description: DMR (dynamic mass redistribution) was measured by resonant waveguide grating (RWG) using an Epic biosensor (Corning). CHO-hGPR120, CHO-mGPR120 and CHO cells in DMEM/F-12 (Invitrogen) were cultured in fibronectin coated 384-well Epic plates (Corning) at 37°C, 95% humidity and 5% CO2 for 5 hours with 10% FBS (Sigma), followed by 19 hours without FBS. CHO-hGPR40 cells were cultured at 37°C, 95% humidity and 5% CO2 for 20–24 hours in Ham’s F-12 Nutrient Mix with GlutaMAX (Invitrogen) supplemented with Non-Essential Amino Acids (Gibco) and 10% FBS (Sigma) in fibronectin coated 384-well Epic plates (Corning). Following the incubations culture media was replaced with HBSS (Invitrogen), 20 mM HEPES (Invitrogen), pH 7.4 and 1% DMSO and equilibrated to 26°C in the Epic for thirty min before addition of agonists and detection of DMR.

[3] = target: T1, human GPR120; test: β-arrestin recruitment (Tango) assay in U2OS-hGPR120 cells; type: cell-based
Description: U2OS-hGPR120 cells cultured in Freestyle medium (Invitrogen) were incubated for 5 hours with GPR120 agonists in 384-well Cell BIND plates (Corning) at 37°C, 95% humidity and 5% CO2. LiveBLAzer™ FRET B/G working solution (Invitrogen) was added and after 2 hours at room temperature fluorescence intensity (λex = 405 nm, λem = 530 and 460 nm) was detected using a Pherastar FS (BMG Labtech) according to the manufacturers protocol.

[4] = target: T1, human GPR120; test: Calcium mobilization assay in CHO-hGPR120 cells; type: cell-based; details: for Calcium mobilization after Gαq inhibition: CHO-hGPR120 cells pre-treated with 1 μM QIC; for EC50: CHO-hGPR120 cells, mean ± SEM
Description: CHO-hGPR120 and CHO cells were cultured in DMEM/F-12 (Invitrogen) with 10% FBS (Sigma) and HEK293-mGPR40 in DMEM (Invitrogen) supplemented with 10% FBS in 384-well poly-D-Lysin coated microplates (Greiner) at 37°C, 95% humidity and 5% CO2. After 19 hours cell media was replaced with Calcium4 dye (Molecular Devices) in HBSS (Invitrogen), 20 mM HEPES (Invitrogen), pH 7.4 and 1.25 mM Probenecid (Sigma). After 1 hour at room temperature agonists were added and calcium mobilization was detected as change in fluorescence (λex = 488 and λem = 540 nm) using a FLIPR^TETRA (Molecular Devices).

[5] = test system: lean female mice; test: Intravenous glucose tolerance test (IVGTT) in lean female mice; type: in vivo, mouse; details: for Basal blood glucose: 4-hour fasted female mice, oral Metabolex-36 100 mg/kg or AZ13581837 35 mg/kg, vehicle 7.8±0.2 mM; for Acute insulin response (AIR): vs controls; for Acute insulin response (AIR) / Glucose elimination between 1 and 20 min / Time after iv glucose bolus up to which insulin levels were significantly elevated: Metabolex-36 100 mg/kg; for Acute insulin response (AIR) / Glucose elimination between 1 and 20 min: AZ13581837 35 mg/kg oral; for Time after iv glucose bolus up to which insulin levels were significantly elevated: oral pre-administration, AZ13581837 35 mg/kg
Description: Lean female mice (body weight 20–25 g), were randomized on body weight and fasted 4 hours prior to the IVGTT. Metabolex-36 (100 mg/kg) was administered orally 60 min and AZ13581837 (35mg/kg) 30 min before the IVGTT ([…]). Control mice were given vehicle (0.5% HPMC, 0.1% Tween-80) at corresponding time points. The specificity of AZ13581837 was examined in IVGTT in GPR120 null mice. GPR120 agonist doses were selected to reach plasma levels of at least 10 times over the in vitro EC50 value to achieve maximal activation of GPR120 (S2 Appendix). Thirty minutes prior to the glucose load, the mice were anaesthetised (20 mg/kg fluanisone/0.8 mg/kg fentanyl (Hypnorm®, Janssen, Beerse, Belgium) and 10 mg/kg midazolam (Dormicum®, Hoffman-LaRoche, Basel, Switzerland)) to allow for rapid blood sampling. The mice were kept at a heating pad to maintain body temperature.
In separate experiments, mice were pretreated with the GLP-1 receptor antagonist exendin 9–39 (30 nmol/kg, Bachem; intraperitoneally) alone or in combination with the GPR120 agonists, 15 min prior to the IVGTT. Insulin and glucose were measured 0, 1, 5, 10, 20 and 40 min after intravenous (iv) glucose administration. In separate groups of mice total GLP-1 levels were measured 60 min after oral administration of Metabolex-36 or 30 min after AZ13581837 and in corresponding vehicle (0.5% HPMC, 0.1% Tween-80) dosed mice. Blood samples were collected in EDTA coated tubes, centrifuged at 10000xg for 4 min, and plasma was separated and stored frozen until analyzed.
In the IVGTT, the acute insulin response (AIR) was calculated as the mean of suprabasal 1 and 5 min values, and the glucose elimination was quantified using the glucose elimination constant (KG) calculated as the slope of the logarithmic transformation of circulating glucose between 1 and 20 min after the glucose bolus. Multiple comparisons between the different groups were performed by one-way ANOVA. Tukey’s or Bonferroni’s post hoc test were used to calculate statistical differences between the groups. Significant statistical difference was considered at p<0.05. Data are presented as mean ± SEM.

[6] = exendin 9–39 30 nmol/kg i.p. 15 min prior to IVGTT

Row | Compound | DMR response after Gαs inhibition [1] | DMR response after Gαi inhibition [1] | DMR response after Gαq inhibition [1] | EC50 ([1]; CHO-hGPR120 cells) [nM] | EC50 [2] [nM] | Calcium mobilization after Gαq inhibition [4] | EC50 [4] [nM] | Basal blood glucose [5] [mM] | Acute insulin response (AIR) ([5]; IVGTT) | Glucose elimination between 1 and 20 min ([5]; IVGTT) | Agonist-induced increase in insulin secretion after co-administration with exendin 9–39 [5, 6] | Time after iv glucose bolus up to which insulin levels were significantly elevated [5] | also measured
1 | C#Cc1cc(Oc2cccnc2)cc(N2Cc3ccccc3S2(=O)=O)c1 [AZ13581837, 2-(3-ethynyl-5-(3-pyridyloxy)phenyl)-3H-1,2-benzothiazole 1,1-dioxide] | partly blocked | did not result in any significant decrease | only partly reduced | 5.2 ± 0.6 | 4.3 ± 0.6 | completely abolished | 120 ± 20 | 7.1 ± 0.3 | significant increase | increased the glucose elimination | completely abolished | up to 10 minutes | Potency relative to Metabolex-36 in DMR response ([1]; CHO-hGPR120 cells, fold more potent than Metabolex-36): about 100 fold; EC50 [3]: 5.2 ± 0.4 nM; Insulin secretion in IVGTT (agonist alone) ([5]; exendin 9–39 experiment, agonist alone vs vehicle): significant increase; Acute insulin secretion in wt mice ([5]; female wild type mice, AZ13581837 30 min prior to iv glucose, vs vehicle, p<0.05): significantly increased; Glucose elimination in wt mice compared to compound treated GPR120 null mice ([5]; female wt mice, IVGTT, p<0.05): increased
2 | 3-(3,5-difluoro-4-((3-methyl-1-phenyl-1H-pyrazol-5-yl)methoxy)phenyl)-2-methylpropanoic acid [Metabolex-36] | partly blocked | did not result in any significant decrease | only partly reduced | 570 ± 150 | 130 ± 20 | completely abolished | 1800 ± 190 | 6.9 ± 0.2 | significant increase | increased the glucose elimination | abolished | up to 5 minutes | EC50 ([3]; read-out: β-arrestin EC50, β-arrestin recruitment in U2OS-hGPR120 cells, mean ± SEM): 1400 ± 700 nM; Acute insulin response when given together with exendin 9–39 [5, 6]: reduced to vehicle levels; Glucose elimination when given together with exendin 9–39 [5, 6]: reduced to vehicle levels; Glucose lowering effect in combination with exendin 9–39 [5, 6]: abolished

Reference: PMC5716539, “The acute glucose lowering effect of specific GPR120 activation in mice is mainly driven by glucagon-like peptide 1” (PLoS ONE, 2017)
